# Patent US7879861B2, “Combi-molecules having EGFR and DNA targeting properties” (priority 2005, dated 2011)
# Read-outs that look alike come from different tables or passages of the source.
# Tests used:
# MDA-MB-468 cells [1] = assay: Annexin V binding (apoptosis), flow cytometry; type: cell-based, human
# Procedure: Annexin V Binding: Cells were grown in 6-well plates until confluence and then incubated with the compounds for 24 h, 48 and 72 h. The cells were then harvested, washed twice with PBS, and centrifuged. Cells (10^5) were treated with annexin V-FITC and propidium iodide (PI) using the Apoptosis Detection Kit (BD Bioscience Pharmingen, USA) and the supplier's protocol. Annexin V-FITC and PI binding were analyzed by flow cytometry. Data were collected using logarithmic amplification of both the FL1 (FITC) and FL2 (PI) channels. Quadrant analysis of co-ordinate dot plots was performed with CellQuest software. Unstained cells were used to adjust the photomultiplier voltage and for compensation setting adjustment in order to eliminate spectral overlap between the FL1 and FL2 signals.
# NIH3T3HER14 cells = assay: Growth factor-stimulated proliferation, SRB assay; type: cell-based, mouse; conditions: 72 h
# Procedure: (§1) In vitro growth inhibition assay: To study the effect of the compounds on growth factor stimulated-proliferation, cells were grown to 70% of confluence in 48-well plates. They were subsequently washed twice with PBS, incubated in serum-free medium for 18 h and exposed to each drug+growth factors (EGF, TGFα, PDGF or serum) for 72 h. Cell growth was measured using the sulforhodamine B (SRB) assay (24). Briefly, following drug treatment, cells were fixed using 50 μl of cold trichloroacetic acid (50%) for 60 min at 4° C., washed five times with tap water, and stained for 30 min at room temperature with SRB (0.4%) and dissolved in acetic acid (0.5%). The plates were rinsed five times with 1% acetic acid and allowed to air dry. The resulting colored residue was dissolved in 200 μl of Tris base (10 mM), and the optical density read for each well at 450 nm using a Bio-Rad microplate reader (model 2550). […] Cell growth was measured using SRB assay as described previously.
# MAPK (Erk1, 2) [2] = assay: EGF-stimulated MAPK phosphorylation in MDA-MB-468 cells (Western blot); type: cell-based, human; conditions: at concentrations as low as 1 μM
# Procedure: (§2) Autophosphorylation assay: Inhibition of receptor autophosphorylation in viable cells was determined by anti-phosphotyrosine Western blots as previously described (19). […] Equal amounts of cell lysates were analyzed by Western blot using anti-phosphotyrosine antibodies. Membranes were stripped of anti-phosphotyrosine and reprobed with anti-EGFR or anti-erbB2 antibodies (NeoMarkers, Fremont, Calif.). To study whether an inhibition is reversible or not, duplicate sets of cells were treated with 2 μM of designated compound for 2 h. One set of cells was then stimulated with EGF. The other set of cells was washed free of the compound with warmed serum-free media, incubated for 2 h, washed again, incubated for another 2 h, and incubated for a further 4 h after a subsequent wash. This set of cells was then stimulated with EGF. Western blot was performed as previously described. […] The membrane was incubated with anti-phosphorylated MAPK (Erk1,2) or anti-Erk 1,2 antibodies (Cell Signaling Technology Inc., Beverly, Mass.).
# Water solubility = type: physicochemical
# EGFR = EGFR (Homo sapiens, UniProt P00533); assay: Reversibility of EGFR autophosphorylation inhibition in MDA-MB-468 cells (washout, 8 h); type: cell-based; set-up: EGF-induced EGFR autophosphorylation in MDA-MB-468 cells; endogenous in cells; host or cells: MDA-MB-468 (ATCC)
# Chain of EGFR (P00533 25-1210): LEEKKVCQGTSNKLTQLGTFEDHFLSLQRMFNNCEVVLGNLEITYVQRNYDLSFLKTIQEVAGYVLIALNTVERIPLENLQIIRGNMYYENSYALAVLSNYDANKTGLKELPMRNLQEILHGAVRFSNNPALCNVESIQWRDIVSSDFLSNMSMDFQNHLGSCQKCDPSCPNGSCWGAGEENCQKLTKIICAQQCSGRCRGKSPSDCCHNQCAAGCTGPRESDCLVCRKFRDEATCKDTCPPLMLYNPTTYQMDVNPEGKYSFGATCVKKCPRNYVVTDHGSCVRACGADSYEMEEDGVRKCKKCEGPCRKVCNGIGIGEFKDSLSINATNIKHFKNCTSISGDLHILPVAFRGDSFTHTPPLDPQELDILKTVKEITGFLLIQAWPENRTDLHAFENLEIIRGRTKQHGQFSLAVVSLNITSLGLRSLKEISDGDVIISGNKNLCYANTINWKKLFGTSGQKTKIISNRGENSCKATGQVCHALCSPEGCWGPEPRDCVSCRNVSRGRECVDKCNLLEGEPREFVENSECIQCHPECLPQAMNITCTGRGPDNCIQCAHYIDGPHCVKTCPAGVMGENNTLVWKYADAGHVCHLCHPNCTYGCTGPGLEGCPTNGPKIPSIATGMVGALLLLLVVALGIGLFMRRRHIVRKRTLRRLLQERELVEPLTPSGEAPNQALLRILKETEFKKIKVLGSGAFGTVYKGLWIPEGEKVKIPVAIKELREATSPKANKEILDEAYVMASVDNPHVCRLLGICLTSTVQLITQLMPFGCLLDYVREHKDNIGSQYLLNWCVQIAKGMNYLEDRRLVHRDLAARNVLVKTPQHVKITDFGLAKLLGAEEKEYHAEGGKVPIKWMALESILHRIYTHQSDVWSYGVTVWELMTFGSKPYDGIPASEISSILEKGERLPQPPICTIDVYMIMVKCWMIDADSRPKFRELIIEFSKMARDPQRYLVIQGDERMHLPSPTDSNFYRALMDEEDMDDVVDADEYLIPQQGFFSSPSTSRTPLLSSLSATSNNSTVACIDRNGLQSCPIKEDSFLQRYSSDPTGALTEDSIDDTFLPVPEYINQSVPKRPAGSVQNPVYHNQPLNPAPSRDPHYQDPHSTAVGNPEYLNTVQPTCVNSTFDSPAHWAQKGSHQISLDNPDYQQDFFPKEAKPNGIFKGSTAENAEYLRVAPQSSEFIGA
# Procedure: To test this hypothesis, the reversibility assay described by Fry et al. (13) and Smaill et al. (14) was used, according to which the cells are treated with inhibitors (2 μM) for 2 h and then washed free of drug. After 8 h, EGF was added; after a 10-min incubation the cells were lysed, and the degree of EGFR autophosphorylation measured.
# [3] = Chemical stability of combi-molecules; type: physicochemical
# DNA of MDA-MB-468 cells = assay: Alkaline comet assay for DNA damage; type: cell-based, human; conditions: 2 h drug exposure
# Procedure: Alkaline Comet Assay for quantization of DNA damage: The alkaline comet assay was performed as described in previously published procedures (19, 20). The cells were exposed to drugs for 2 h, harvested with trypsin-EDTA and re-suspended in PBS. Cell suspensions were diluted to approximately 10^6 cells, and mixed with agarose (1%) in PBS at 37° C. in a 1:10 dilution. The gels were cast on Gelbond strips (Mandel Scientific, Canada) using gel casting chambers and then immediately placed into a lysis buffer [2.5 M NaCl, 0.1 M tetra-sodium EDTA, 10 mM Tris-base and 1% (v/v) Triton X-100, pH 10.0]. After being kept on ice for 30 min, the gels were gently rinsed with distilled water and immersed in a second lysis buffer (2.5 M NaCl, 0.1 M tetrasodium EDTA, 10 mM Tris-base) containing 1 mg/ml proteinase K for 60 min at 37° C. Thereafter, the gels were rinsed with distilled water, incubated in alkaline electrophoresis buffer for 30 min at 37° C., and electrophoresed at 19 V for 20 min. […] Comets were visualized at 330× magnification and DNA damage was quantitated using the Tail Moment parameter (i.e., the distance between the barycenter of the head and the tail of the comet multiplied by the percentage of DNA within the tail of the comet). A minimum of 50 cell/comets were analyzed for each sample, using ALKOMET version 3.1 image analysis software.
# MAPK (Erk1, 2) [4] = assay: Heregulin-stimulated MAPK phosphorylation in MDA-MB-453 cells (Western blot); type: cell-based, human
# Procedure: as §2
# MDA-MB-468 cells [5] = assay: Reversibility of antiproliferative effect, SRB assay; type: cell-based, human
# Procedure: as §1, with “They were subsequently washed twice with PBS, incubated in serum-free medium for 18 h and exposed to each drug+growth factors (EGF, TGFα, PDGF or serum) for 72 h.” left out
# MDA-MB-453 cells = assay: as above; type: cell-based, human
# Procedure: as §1, with “They were subsequently washed twice with PBS, incubated in serum-free medium for 18 h and exposed to each drug+growth factors (EGF, TGFα, PDGF or serum) for 72 h.” left out
structure (smiles),measurement,setting,value
ClCCNc1ccc2ncnc(Nc3cccc(Br)c3)c2c1 [ZR2002],concentration at which detectable levels of apoptosis start,MDA-MB-468 cells [1],5 µM
same,EGF or TGFα-induced proliferation,NIH3T3HER14 cells,selectively blocking
same,inhibition at 1 µM,"NIH3T3HER14 cells; Mus musculus, at 1 μM, read-out: inhibition of PDGF-stimulated growth",100%
same,inhibition at 10 µM,"NIH3T3HER14 cells; Mus musculus, at concentrations >10 μM, read-out: inhibition of serum-stimulated growth",100%
same,inhibition at 0.1 µM,"NIH3T3HER14 cells; Mus musculus, at concentrations as low at 0.1 μM, read-out: inhibition of EGF-stimulated growth",100%
same,inhibition of EGF-stimulated phosphorylation of MAPK,"MAPK (Erk1, 2) [2]",100%
same,water solubility (in words),Water solubility,reduced water solubility
same,mode of EGFR inhibition (reversible / irreversible),EGFR,irreversible inhibitor of EGFR
same,EGF-dependent EGFR autophosphorylation immediately after drug exposure,"EGFR; 2 μM, 2 h",completely suppressed
same,chemical stability (in words),[3],stable compound that does not self-alkylate
same,"DNA damage (tail moment), in words",DNA of MDA-MB-468 cells,damages DNA in a dose dependent manner
same,concentration inducing significant DNA damage,DNA of MDA-MB-468 cells,10 µM
same,heregulin-stimulated MAPK phosphorylation,"MAPK (Erk1, 2) [4]",blocked heregulin-stimulated MAPK phosphorylation
same,IC50,"MDA-MB-468 cells [5]; Homo sapiens, MDA-MB-468, 120 h, read-out: IC50, growth inhibition, 120 h continuous exposure, MDA-MB-468, SRB",0.36 µM
same,IC50,"MDA-MB-468 cells [5]; Homo sapiens, MDA-MB-468, read-out: IC50, growth inhibition, 2 h exposure followed by 120 h recovery, MDA-MB-468, SRB",7.4 µM
same,IC50,"MDA-MB-468 cells [5]; read-out: IC50, growth inhibition, 2 h exposure followed by 120 h recovery, MDA-MB-468, SRB",5.16 µM
same,IC50,"MDA-MB-468 cells [5]; read-out: IC50, growth inhibition, 120 h continuous exposure, MDA-MB-468, SRB",0.235 µM
same,IC50,"MDA-MB-453 cells; Homo sapiens, MDA-MB-453, 120 h, read-out: IC50, growth inhibition, 120 h continuous exposure, MDA-MB-453, SRB",0.43 µM
same,IC50,"MDA-MB-453 cells; Homo sapiens, MDA-MB-453, read-out: IC50, growth inhibition, 2 h exposure followed by 120 h recovery, MDA-MB-453, SRB",4.17 µM
same,IC50,"MDA-MB-453 cells; read-out: IC50, growth inhibition, 2 h exposure followed by 120 h recovery, MDA-MB-453, SRB",4.17 µM
same,IC50,"MDA-MB-453 cells; read-out: IC50, growth inhibition, 120 h continuous exposure, MDA-MB-453, SRB",0.426 µM
